According to patent publication US7030213B2, “Conformationally stabilized cell adhesion peptides” (La Jolla Cancer Research Institute, priority 1987, dated 2006):
Primed or numbered codes have the meaning given here. Where no end group is shown, it is not given here. [ ]: non-standard residue; d: D form. Pen′ = Penicillamine

What was measured:
[1] = tested on: attachment of normal rat kidney cells to vitronectin; test: Cell adhesion assay: inhibition of attachment of normal rat kidney cells to vitronectin; type: cell-based; conditions: normal rat kidney cells on vitronectin-coated wells, peptide 0 to 10.0 mM, 1 hour at 37° C., FIG. 2
Procedure: (§1) Fibronectin and vitronectin were purified from human plasma according to the methods of Ruoslahti et al., (1982) Meth. Enz. 82:803; and Hayman et al., (1983) PNAS 80:4003, respectively, both of which are incorporated herein by reference. The adhesion of normal rat kidney cells to fibronectin and vitronectin was assayed as described, in Ruoslahti et al., Meth. Enz. supra. Briefly, 0.1 ml solution of fibronectin or vitronectin at a concentration of 12 μg/ml in 0.1M PBS was placed in each well of 96-well plastic microtiter plates and left for 2 hours at room temperature. The unattached protein was removed by washing three times with PBS.
(§2) One day before the assay, a confluent culture of normal rat kidney cells was split 1:2 using standard tissue culture trypsin. The cells were washed three times with PBS, pH 7.2. […] Before the last centrifugation, a sample was taken and cell numbers and viability by trypan blue exclusion are determined. […]
(§3) The unattached cells were removed simply by removing the medium and washing the wells. […] The cells were then fixed with 3% paraformaldehyde in PBS and stained with 1% toluidine blue, paraformaldehyde in PBS, and attached cells counted. Their number was determined using a cell counter that is capable of counting cells attached to a surface (Dynatech Laboratories, Alexandria, Va.). […]

[2] = tested on: attachment of normal rat kidney cells to fibronectin; test: Cell adhesion assay: inhibition of attachment of normal rat kidney cells to fibronectin; type: cell-based; conditions: normal rat kidney cells on fibronectin-coated wells; peptide 0 to 10.0 mM; 1 hour at 37° C.; FIG. 2
Procedure: as §1, §2, §3

Substance: Gly-Pen-Gly-Arg-Gly-Asp-Ser-Pro-Cys (G[Pen′]GRGDSPC; cysteine pairing not given here) [linear peptide, non-cyclized, or linear, peptide used as comparator]
- inhibition of attachment to vitronectin [1]: inhibited attachment of cells to both substrates at relatively similar concentrations
- inhibition of attachment to fibronectin [2]: inhibited attachment of cells to both substrates at relatively similar concentrations

Substance: Gly-Pen-Gly-Arg-Gly-Asp-Ser-Pro-Cys-Ala [cyclic peptide]
- molar concentration inhibiting attachment to vitronectin, lower than the linear peptide ([1]; relative to linear peptide): 10 fold
- inhibition of attachment to fibronectin [2]: ineffective
